Source: patent US20100317647A1 (priority 2009, published 2010)

Molecular target: human Cat S (Homo sapiens, UniProt P25774)
Test: Cathepsin enzyme inhibition assay (fluorogenic peptide substrate cleavage)
Assay type: biochemical
Details: human Cat S 1 nM; substrate Z-Val-Val-Arg-AMC 20 μM; pH 6.5; fluorescence over 20 minutes
Protocol: Cathepsin Enzyme Inhibition Assay
Enzyme activity is measured by observing the increase in fluorescence intensity caused by cleavage of a peptide substrate containing a fluorophore whose emission is quenched in the intact peptide.
Assay buffer: 100 mM potassium phosphate pH 6.5, EDTA-Na 5 mM, Triton X-100 0.001%, DTT 5 mM. Enzymes (all at 1 nM): human and mouse Cathepsin S, Cat K, Cat B, Cat L. Substrate (20 μM): Z-Val-Val-Arg-AMC, except for Cat K which uses Z-Leu-Arg-AMC (both from Bachem).
AMC=7-Amino-4-Methyl-Coumarin.
DTT=dithiothreitol. Final volume: 100 μL.
Excitation 360 nm, Emission 465 nm.
Enzyme is added to the substance dilutions in 96-well microtitre plates and the reaction is started with substrate. Fluorescence emission is measured over 20 minutes, during which time a linear increase is observed in the absence of inhibitor. IC50 are calculated by standard methods. Inhibition of human Cat S, mouse Cat S, human Cat K, mouse Cat K, human Cat B, mouse Cat B, human Cat L and mouse Cat L have been measured separately. The results obtained for human Cat S are expressed in the following table.

human Cat S, sequence (P25774 115-331): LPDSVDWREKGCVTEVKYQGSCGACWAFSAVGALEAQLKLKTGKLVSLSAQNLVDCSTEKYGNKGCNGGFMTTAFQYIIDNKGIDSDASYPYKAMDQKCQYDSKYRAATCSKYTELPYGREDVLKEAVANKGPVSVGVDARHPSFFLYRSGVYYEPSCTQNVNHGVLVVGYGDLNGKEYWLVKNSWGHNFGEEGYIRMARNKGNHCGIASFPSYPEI

IC50 [nM] | SMILES
0.7 | CO[C@@H]1C[C@H](S(=O)(=O)c2ccc(-c3ccc(F)c(F)c3)cc2C(F)(F)F)C[C@H]1C(=O)NC1(C#N)CC1 (racemic) [Example 74, (1R,2R,4R) and (1S,2S,4S)-4-(3′,4′-Difluoro-3-trifluoromethyl-biphenyl-4-sulfonyl)-2-methoxy-cyclopentanecarboxylic acid (1-cyano-cyclopropyl)-amide]
0.5 | CO[C@@H]1C[C@H](S(=O)(=O)c2ccc(-c3ccc(S(C)(=O)=O)cc3)cc2C(F)(F)F)C[C@H]1C(=O)NC1(C#N)CC1 (racemic) [Example 75, (1R,2R,4R) and (1S,2S,4S)-4-(4′-Methanesulfonyl-3-trifluoromethyl-biphenyl-4-sulfonyl)-2-methoxy-cyclopentanecarboxylic acid (1-cyano-cyclopropyl)-amide]
0.6 | CO[C@@H]1C[C@H](S(=O)(=O)c2ccc(-c3ccc(S(N)(=O)=O)cc3)cc2C(F)(F)F)C[C@H]1C(=O)NC1(C#N)CC1 (racemic) [Example 76, (1R,2R,4R) and (1S,2S,4S)-2-Methoxy-4-(4′-sulfamoyl-3-trifluoromethyl-biphenyl-4-sulfonyl)-cyclopentanecarboxylic acid (1-cyano-cyclopropyl)-amide]
0.3 | COc1ccc(-c2ccc(S(=O)(=O)[C@H]3C[C@@H](OC)[C@H](C(=O)NC4(C#N)CC4)C3)c(C(F)(F)F)c2)cn1 (racemic) [Example 78, (1R,2R,4R) and (1S,2S,4S)-2-Methoxy-4-[4-(6-methoxy-pyridin-3-yl)-2-trifluoromethyl-benzenesulfonyl]-cyclopentanecarboxylic acid (1-cyano-cyclopropyl)-amide]
0.6 | CO[C@@H]1C[C@H](S(=O)(=O)c2ccc(-c3ccc(C)nc3)cc2C(F)(F)F)C[C@H]1C(=O)NC1(C#N)CC1 (racemic) [Example 81, (1R,2R,4R) and (1S,2S,4S)-2-Methoxy-4-[4-(6-methyl-pyridin-3-yl)-2-trifluoromethyl-benzenesulfonyl]-cyclopentanecarboxylic acid (1-cyano-cyclopropyl)-amide]
0.2 | CO[C@@H]1C[C@H](S(=O)(=O)c2ccc(-c3cncc(S(C)(=O)=O)c3)cc2C(F)(F)F)C[C@H]1C(=O)NC1(C#N)CC1 (racemic) [Example 83, (1R,2R,4R) and (1S,2S,4S)-4-[4-(5-Methanesulfonyl-pyridin-3-yl)-2-trifluoromethyl-benzenesulfonyl]-2-methoxy-cyclopentanecarboxylic acid (1-cyano-cyclopropyl)-amide]

Further lines, the compound ahead of its results:

SMILES | IC50 [nM]
CO[C@@H]1C[C@H](S(=O)(=O)c2ccc(N3CCCCC3)cc2Cl)C[C@H]1C(=O)NC1(C#N)CC1 (racemic) [Example 64, (1R,2R,4R) and (1S,2S,4S)-4-(2-Chloro-4-piperidin-1-yl-benzenesulfonyl)-2-methoxy-cyclopentanecarboxylic acid (1-cyano-cyclopropyl)-amide] | 12
CO[C@@H]1C[C@H](S(=O)(=O)c2ccc(OCC(F)(F)F)cc2Cl)C[C@H]1C(=O)NC1(C#N)CC1 (racemic) [Example 65, (1R,2R,4R) and (1S,2S,4S)-4-[2-Chloro-4-(2,2,2-trifluoro-ethoxy)-benzenesulfonyl]-2-methoxy-cyclopentanecarboxylic acid (1-cyano-cyclopropyl)-amide] | 8
CO[C@@H]1C[C@H](S(=O)(=O)c2ccc(-c3cnn(C)c3)cc2C(F)(F)F)C[C@H]1C(=O)NC1(C#N)CC1 (racemic) [Example 66, (1R,2R,4R) and (1S,2S,4S)-2-Methoxy-4-[4-(1-methyl-1H-pyrazol-4-yl)-2-trifluoromethyl-benzenesulfonyl]-cyclopentanecarboxylic acid (1-cyano-cyclopropyl)-amide] | 0.7
CO[C@@H]1C[C@H](S(=O)(=O)c2ccc(-c3cc(C)nn3C)cc2C(F)(F)F)C[C@H]1C(=O)NC1(C#N)CC1 (racemic) [Example 67, (1R,2R,4R) and (1S,2S,4S)-4-[4-(2,5-Dimethyl-2H-pyrazol-3-yl)-2-trifluoromethyl-benzenesulfonyl]-2-methoxy-cyclopentanecarboxylic acid (1-cyano-cyclopropyl)-amide] | 0.6
CO[C@@H]1C[C@H](S(=O)(=O)c2ccc(-c3ccnn3C)cc2C(F)(F)F)C[C@H]1C(=O)NC1(C#N)CC1 (racemic) [Example 72, (1R,2R,4R) and (1S,2S,4S)-2-Methoxy-4-[4-(1-methyl-1H-pyrazol-5-yl)-2-trifluoromethyl-benzenesulfonyl]-cyclopentanecarboxylic acid (1-cyano-cyclopropyl)-amide] | 1.2
CO[C@@H]1C[C@H](S(=O)(=O)c2ccc(-c3cc[nH]n3)cc2C(F)(F)F)C[C@H]1C(=O)NC1(C#N)CC1 (racemic) [Example 73, (1R,2R,4R) and (1S,2S,4S)-2-Methoxy-4-[4-(1H-pyrazol-3-yl)-2-trifluoromethyl-benzenesulfonyl]-cyclopentanecarboxylic acid (1-cyano-cyclopropyl)-amide] | 1
CO[C@@H]1C[C@H](S(=O)(=O)c2ccc(-c3ccnc(C)c3)cc2C(F)(F)F)C[C@H]1C(=O)NC1(C#N)CC1 (racemic) [Example 77, (1R,2R,4R) and (1S,2S,4S)-2-Methoxy-4-[4-(2-methyl-pyridin-4-yl)-2-trifluoromethyl-benzenesulfonyl]-cyclopentanecarboxylic acid (1-cyano-cyclopropyl)-amide] | 0.6
N#CCNC(=O)[C@H]1CC[C@H](S(=O)(=O)c2ccc(F)cc2Cl)C1 (racemic) [Example 79, (1S,3S) and (1R,3R)-3-(2-Chloro-4-fluoro-benzenesulfonyl)-cyclopentanecarboxylic acid cyanomethyl-amide] | 683
C[C@H](Oc1ccc(S(=O)(=O)[C@H]2CC[C@H](C(=O)NCC#N)C2)c(Cl)c1)C(F)(F)F (racemic) [Example 80, (1S,3S)-3-[2-Chloro-4-(2,2,2-trifluoro-1-methyl-ethoxy)-benzenesulfonyl]-cyclopentanecarboxylic acid cyanomethyl-amide (epimeric mixture of racemate)] | 1030
CO[C@@H]1C[C@H](S(=O)(=O)c2ccc(-c3cncnc3)cc2C(F)(F)F)C[C@H]1C(=O)NC1(C#N)CC1 (racemic) [Example 82, (1R,2R,4R) and (1S,2S,4S)-2-Methoxy-4-(4-pyrimidin-5-yl-2-trifluoromethyl-benzenesulfonyl)-cyclopentanecarboxylic acid (1-cyano-cyclopropyl)-amide] | 0.6
CO[C@@H]1C[C@H](S(=O)(=O)c2ccc(-c3cncc(F)c3)cc2C(F)(F)F)C[C@H]1C(=O)NC1(C#N)CC1 (racemic) [Example 84, (1R,2R,4R) and (1S,2S,4S)-4-[4-(5-Fluoro-pyridin-3-yl)-2-trifluoromethyl-benzenesulfonyl]-2-methoxy-cyclopentanecarboxylic acid (1-cyano-cyclopropyl)-amide] | 0.7
CO[C@@H]1C[C@H](S(=O)(=O)c2ccc(-c3cncc(C)c3)cc2C(F)(F)F)C[C@H]1C(=O)NC1(C#N)CC1 (racemic) [Example 85, (1R,2R,4R) and (1S,2S,4S)-2-Methoxy-4-[4-(5-methyl-pyridin-3-yl)-2-trifluoromethyl-benzenesulfonyl]-cyclopentanecarboxylic acid (1-cyano-cyclopropyl)-amide] | 0.5
